Source: patent US20260297080A1, “BICYCLIC COMPOUNDS AS CDK INHIBITORS” (BeOne Medicines I GmbH, priority 2022, published 2026)
Blank lines part the entries; values can stand above or below the compound they belong to.

How the values were obtained:
[1] = target: CDK2/Cyclin E1 (Homo sapiens, UniProt P24941); assay: CDK2/Cyclin E1 Biochemical Assay (TR-FRET), 0.060 mM ATP; settings: 0.15 μM Rb (Ser780)-biotin substrate, pH7.0, 60 min preincubation, 120 min reaction, room temperature
Procedure, shortened: (§1)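 Percent inhibition was derived from the 665 nm/620 nm TR-FRET ratio after a 120-minute room-temperature reaction on 0.15 μM Rb (Ser780)-biotin, preceded by 60-minute enzyme–compound preincubation. IC50 came from four-parameter logistic fitting.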

[2] = target: CDK1/Cyclin B1 (Homo sapiens, UniProt P06493); assay: CDK1/Cyclin B1 Biochemical Assay (TR-FRET), 0.015 mM ATP; settings: 0.15 μM Rb (Ser780)-biotin substrate, pH7.0, 60 min preincubation, 120 min reaction, room temperature
Procedure, shortened: as §1

CDK1/Cyclin B1, sequence (P06493 whole entry): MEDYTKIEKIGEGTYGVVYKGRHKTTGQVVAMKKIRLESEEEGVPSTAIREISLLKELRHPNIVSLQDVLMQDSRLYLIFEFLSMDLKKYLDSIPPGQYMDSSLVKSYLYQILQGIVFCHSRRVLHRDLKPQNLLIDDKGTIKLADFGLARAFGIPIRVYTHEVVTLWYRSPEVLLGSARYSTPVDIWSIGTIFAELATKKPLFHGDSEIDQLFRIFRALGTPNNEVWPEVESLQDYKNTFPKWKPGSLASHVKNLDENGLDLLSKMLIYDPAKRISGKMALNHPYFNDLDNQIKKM
CDK1/Cyclin B1, sequence (P14635 whole entry partner): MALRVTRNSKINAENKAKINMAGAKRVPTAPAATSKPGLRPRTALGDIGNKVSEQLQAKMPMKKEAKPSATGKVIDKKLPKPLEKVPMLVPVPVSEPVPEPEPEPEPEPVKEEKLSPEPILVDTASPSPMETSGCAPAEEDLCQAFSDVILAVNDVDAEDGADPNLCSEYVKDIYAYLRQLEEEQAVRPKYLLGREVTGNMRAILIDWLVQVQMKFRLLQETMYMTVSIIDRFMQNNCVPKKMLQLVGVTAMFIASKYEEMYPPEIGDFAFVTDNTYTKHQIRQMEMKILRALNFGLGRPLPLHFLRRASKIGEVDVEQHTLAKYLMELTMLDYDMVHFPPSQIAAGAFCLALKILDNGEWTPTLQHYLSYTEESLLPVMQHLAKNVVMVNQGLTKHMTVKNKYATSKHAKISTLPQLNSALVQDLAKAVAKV

SMILES: O=C(NC1CC2(CCC2)C1)O[C@H]1CC[C@@H](c2cc(Nc3ccc4c(c3F)CNS4(=O)=O)n[nH]2)C1 (relative stereo) [Example 151, cis-3-(3-((4-fluoro-1,1-dioxido-2,3-dihydrobenzo[d]isothiazol-5-yl)amino)-1H-pyrazol-5-yl)cyclopentyl spiro[3.3]heptan-2-ylcarbamate]
IC50 [1]: 80 nM
IC50 [2]: 668 nM

SMILES: COCCN1Cc2ccc(Nc3cc([C@@H]4CC[C@H](OC(=O)NC(C)C)C4)[nH]n3)c(F)c2S1(=O)=O (relative stereo) [Example 191, cis-3-(3-((7-fluoro-2-(2-methoxyethyl)-1,1-dioxido-2,3-dihydrobenzo[d]isothiazol-6-yl)amino)-1H-pyrazol-5-yl)cyclopentyl isopropylcarbamate]
IC50 [1]: 9.3 nM
IC50 [2]: 191 nM

SMILES: CN1c2ccc(Nc3cc([C@@H]4CC[C@H](OC(=O)NC5(C)CC5)C4)[nH]n3)c(F)c2CS1(=O)=O (relative stereo) [Example 257, cis-3-(3-((4-fluoro-1-methyl-2,2-dioxido-1,3-dihydrobenzo[c]isothiazol-5-yl)amino)-1H-pyrazol-5-yl)cyclopentyl(1-methylcyclopropyl)carbamate]
IC50 [1]: 1.5 nM
IC50 [2]: 33 nM

SMILES: CC[C@H](C)NC(=O)O[C@H]1CC[C@@H](c2cc(Nc3ccc4c(c3F)CS(=O)(=O)N4CCO)n[nH]2)C1 (relative stereo) [Example 273, cis-3-(3-((4-fluoro-1-(2-hydroxyethyl)-2,2-dioxido-1,3-dihydrobenzo[c]isothiazol-5-yl)amino)-1H-pyrazol-5-yl)cyclopentyl((S)-sec-butyl)carbamate]
IC50 [1]: 2.5 nM
IC50 [2]: 43 nM

SMILES: O=C(NCCC(F)(F)F)O[C@@H]1CC[C@H](c2cc(Nc3ccc4c(c3)CS(=O)(=O)N4)n[nH]2)C1 (relative stereo) [Example 198, cis-3-(3-((2,2-dioxido-1,3-dihydrobenzo[c]isothiazol-5-yl)amino)-1H-pyrazol-5-yl)cyclopentyl(3,3,3-trifluoropropyl)carbamate]
IC50 [1]: 18 nM
IC50 [2]: 75 nM

SMILES: CC(NC(=O)O[C@H]1CC[C@@H](c2cc(Nc3ccc4c(c3)CS(=O)(=O)N4C)n[nH]2)C1)C1COC1 (relative stereo) [Example 235, cis-3-(3-((1-methyl-2,2-dioxido-1,3-dihydrobenzo[c]isothiazol-5-yl)amino)-1H-pyrazol-5-yl)cyclopentyl(1-(oxetan-3-yl)ethyl)carbamate]
IC50 [1]: 12 nM
IC50 [2]: 232 nM

SMILES: CC(C)NC(=O)O[C@H]1CC[C@@H](c2cc(Nc3cc(F)c4c(c3)CS(=O)(=O)N4)n[nH]2)C1 (relative stereo) [Example 279, cis-3-(3-((7-fluoro-2,2-dioxido-1,3-dihydrobenzo[c]isothiazol-5-yl)amino)-1H-pyrazol-5-yl)cyclopentyl isopropylcarbamate]
IC50 [1]: 0.7 nM
IC50 [2]: 43 nM

SMILES: [2H]C([2H])([2H])N1c2ccc(Nc3cc([C@@H]4CC[C@H](OC(=O)NC5(C)CC5)C4)[nH]n3)c(F)c2CS1(=O)=O (relative stereo) [Example 270, cis-3-(3-((4-fluoro-1-(methyl-d3)-2,2-dioxido-1,3-dihydrobenzo[c]isothiazol-5-yl)amino)-1H-pyrazol-5-yl)cyclopentyl(1-methylcyclopropyl)carbamate]
IC50 [1]: 1.7 nM
IC50 [2]: 37 nM

SMILES: O=C(NC1(CO)CC1)O[C@H]1CC[C@@H](c2cc(Nc3ccc4c(c3F)CNS4(=O)=O)n[nH]2)C1 (relative stereo) [Example 333, cis-3-(3-((4-fluoro-1,1-dioxido-2,3-dihydrobenzo[d]isothiazol-5-yl)amino)-1H-pyrazol-5-yl)cyclopentyl(1-(hydroxymethyl)cyclopropyl)carbamate]
IC50 [1]: 10 nM
IC50 [2]: 402 nM

SMILES: CCCNC(=O)O[C@H]1C[C@@H](c2cc(Nc3cc4c(cc3F)S(=O)(=O)NC4)n[nH]2)C1 [Example 50, cis-3-(3-((6-fluoro-1,1-dioxido-2,3-dihydrobenzo[d]isothiazol-5-yl)amino)-1H-pyrazol-5-yl)cyclobutyl propylcarbamate]
IC50 [1]: 5.6 nM
IC50 [2]: 140 nM

SMILES: CCN1Cc2c(ccc(Nc3cc([C@@H]4CC[C@H](OC(=O)NC(C)C)C4)[nH]n3)c2F)S1(=O)=O (relative stereo) [Example 60, cis-3-(3-((2-ethyl-4-fluoro-1,1-dioxido-2,3-dihydrobenzo[d]isothiazol-5-yl)amino)-1H-pyrazol-5-yl)cyclopentyl isopropylcarbamate]
IC50 [1]: 9.2 nM
IC50 [2]: 497 nM

SMILES: COCC(C)(C)NC(=O)O[C@H]1CC[C@@H](c2cc(Nc3ccc4c(c3F)CS(=O)(=O)N4C)n[nH]2)C1 (relative stereo) [Example 377, cis-3-(3-((4-fluoro-1-methyl-2,2-dioxido-1,3-dihydrobenzo[c]isothiazol-5-yl)amino)-1H-pyrazol-5-yl)cyclopentyl(1-methoxy-2-methylpropan-2-yl)carbamate]
IC50 [1]: 1.1 nM
IC50 [2]: 45 nM

SMILES: CN1c2ccc(Nc3cc([C@@H]4CC[C@H](OC(=O)NC56CC(C5)C6)C4)[nH]n3)cc2CS1(=O)=O (relative stereo) [Example 231, cis-3-(3-((1-methyl-2,2-dioxido-1,3-dihydrobenzo[c]isothiazol-5-yl)amino)-1H-pyrazol-5-yl)cyclopentyl bicyclo[1.1.1]pentan-1-ylcarbamate]
IC50 [1]: 1.5 nM
IC50 [2]: 13 nM

SMILES: [2H]C([2H])([2H])C1c2cc(Nc3cc([C@@H]4CC[C@H](OC(=O)NCCC)C4)[nH]n3)cc(F)c2N(C([2H])([2H])[2H])S1(=O)=O (relative stereo) [Example 284, cis-3-(3-((7-fluoro-1,3-bis(methyl-d3)-2,2-dioxido-1,3-dihydrobenzo[c]isothiazol-5-yl)amino)-1H-pyrazol-5-yl)cyclopentyl propylcarbamate]
IC50 [1]: 8.3 nM
IC50 [2]: 61 nM

SMILES: CN1c2ccc(Nc3cc([C@@H]4CC[C@H](OC(=O)NC5CC6(CCC6)C5)C4)[nH]n3)cc2CS1(=O)=O (relative stereo) [Example 224, cis-3-(3-((1-methyl-2,2-dioxido-1,3-dihydrobenzo[c]isothiazol-5-yl)amino)-1H-pyrazol-5-yl)cyclopentyl spiro[3.3]heptan-2-ylcarbamate]
IC50 [1]: 29 nM
IC50 [2]: 2580 nM

SMILES: CC(C)NC(=O)O[C@H]1CC[C@@H](c2cc(Nc3ccc4c(c3F)CN(C3CCNC(=O)C3)S4(=O)=O)n[nH]2)C1 (relative stereo) [Example 81, cis-3-(3-((4-fluoro-1,1-dioxido-2-(2-oxopiperidin-4-yl)-2,3-dihydrobenzo[d]isothiazol-5-yl)amino)-1H-pyrazol-5-yl)cyclopentyl isopropylcarbamate]
IC50 [1]: 7.2 nM
IC50 [2]: 537 nM

SMILES: CCCNC(=O)O[C@H]1CC[C@@H](c2cc(Nc3cc4c(cc3F)S(=O)(=O)NC4)n[nH]2)C1 (single isomer, unassigned) [Example 42b, cis-3-(3-((6-fluoro-1,1-dioxido-2,3-dihydrobenzo[d]isothiazol-5-yl)amino)-1H-pyrazol-5-yl)cyclopentyl propylcarbamate]
IC50 [1]: 5.5 nM
IC50 [2]: 128 nM

Other lines, results leading:

IC50 [1]: 3.4 nM
IC50 [2]: 201 nM
SMILES: CC(C)NC(=O)O[C@H]1CC[C@@H](c2cc(Nc3ccc4c(c3)CCS(=O)(=O)N4)n[nH]2)C1 (single isomer, unassigned) [Example 246a, cis-3-(3-((2,2-dioxido-3,4-dihydro-1H-benzo[c][1,2]thiazin-6-yl)amino)-1H-pyrazol-5-yl)cyclopentyl isopropylcarbamate]

IC50 [1]: 3.9 nM
IC50 [2]: 191 nM
SMILES: CC(C)NC(=O)O[C@H]1CC[C@@H](c2cc(Nc3ccc4c(c3)C(C)S(=O)(=O)N4)n[nH]2)C1 (single isomer, unassigned) [Example 384b, cis-3-(3-((3-methyl-2,2-dioxido-1,3-dihydrobenzo[c]isothiazol-5-yl)amino)-1H-pyrazol-5-yl)cyclopentyl isopropylcarbamate]

IC50 [1]: 8 nM
IC50 [2]: 168 nM
SMILES: CCCNC(=O)O[C@H]1CC[C@@H](c2cc(Nc3ccc4c(c3F)CN(C3CC3)S4(=O)=O)n[nH]2)C1 (single isomer, unassigned) [Example 118b, cis-3-(3-((2-cyclopropyl-4-fluoro-1,1-dioxido-2,3-dihydrobenzo[d]isothiazol-5-yl)amino)-1H-pyrazol-5-yl)cyclopentyl propylcarbamate]

IC50 [1]: 1.6 nM
IC50 [2]: 191 nM
SMILES: CC(C)(C)NC(=O)O[C@@H]1CC[C@H](c2cc(Nc3cc4c(cc3F)S(=O)(=O)NC4)n[nH]2)C1 (single isomer, unassigned) [Example 395a]

IC50 [1]: 12 nM
IC50 [2]: 73 nM
SMILES: CCCNC(=O)O[C@H]1CC[C@@H](c2cc(Nc3ccc4c(c3)CS(=O)(=O)N4)n[nH]2)C1 (single isomer, unassigned) [Example 195a, cis-3-(3-((2,2-dioxido-1,3-dihydrobenzo[c]isothiazol-5-yl)amino)-1H-pyrazol-5-yl)cyclopentyl propylcarbamate]

IC50 [1]: 3.6 nM
IC50 [2]: 28 nM
SMILES: CC(C)NC(=O)O[C@H]1CC[C@@H](c2cc(Nc3ccc4c(c3)CS(=O)(=O)N4CCO)n[nH]2)C1 (single isomer, unassigned) [Example 219b, cis-3-(3-((1-(2-hydroxyethyl)-2,2-dioxido-1,3-dihydrobenzo[c]isothiazol-5-yl)amino)-1H-pyrazol-5-yl)cyclopentyl isopropylcarbamate]

IC50 [1]: 3.5 nM
IC50 [2]: 69 nM
SMILES: O=C(NCCC(F)(F)F)O[C@H]1CC[C@@H](c2cc(Nc3ccc4c(c3F)CNS4(=O)=O)n[nH]2)C1 (single isomer, unassigned) [Example 154b, cis-3-(3-((4-fluoro-1,1-dioxido-2,3-dihydrobenzo[d]isothiazol-5-yl)amino)-1H-pyrazol-5-yl)cyclopentyl(3,3,3-trifluoropropyl)carbamate]
